Source: patent US5763435A, “Sulfate conjugates of ursodeoxycholic acid, and their beneficial use in inflammatory disorders” (priority 1995, dated 1998)

How the values were obtained:
[1] = system: Principal Bile Acids in Colon; experiment: Bile acid composition of colon after oral administration (GC-MS); type: in vivo, Sprague-Dawley rats; settings: for Change in colonic deoxycholic / lithocholic acid (in words): oral, vs control
Description: (§1) Male Sprague-Dawley rats (Harlan Sprague-Dawley, Inc., Indianapolis, Ind.), weighing 210-290 g, were maintained on a 12-hour light-dark cycle and fed standard laboratory chow ad libitum for 3 days. The animals were then transferred to metabolic cages in which they were housed individually and fed the same diet. UDCA, UDCA 3-sulfate, UDCA 7-sulfate, and UDCA 3,7-disulfate were administered by gavage at a dose of 250 mg/day for 4 consecutive days. Each group comprised 3-6 rats. Body weights of the animals were measured each day. On day 5, the animals were killed by exsanguination under ether anesthesia. Plasma was collected and frozen at -20° C. The liver was removed, rinsed in normal saline, and flash-frozen in liquid nitrogen. Urine and feces were collected every 24 hours and frozen at -20° C. All animals received humane care in compliance with the "Guide for the Care and Use of Laboratory Animals" prepared by the National Academy of Sciences (National Institutes of Health publication no. 86-23, revised in 1985).
(§2) Intestinal contents were weighed and dissected into small pieces. In each group, feces (100 mg) from all animals were pooled on day 4 of the study and then ground into a fine paste. All samples were sonicated and sequentially refluxed in 80% methanol for 2 hours and chloroform/methanol (1:1) for 1 hour. Samples were taken to dryness, and the dried extracts were resuspended in 80% methanol (20 mL). Fractions of the methanolic extract (1/40 of intestinal contents and 1/20 of feces samples) were removed and the internal standard nordeoxycholic acid (10 μg) was added. This extract was diluted with 0.01 mol/L acetic acid (20 mL) and passed first through a column of Lipidex 1000 (bed size, 4×1 cm; Packard Instrument Co., Groningen, The Netherlands) and then through a Bond-Elut C18, cartridge (Analytichem, Harbor City, Calif.). Bile acids were recovered by elution of the Lipidex 1000 column and the Bond-Elut cartridge with methanol (20 mL and 5 mL, respectively), and the combined extracts were taken to dryness. Unconjugated bile acids were isolated and separated from neutral sterol and conjugated bile acids by lipophilic anion exchange chromatography on diethylaminohydroxypropyl Sephadex LH-20 (Lipidex-DEAP; Package Instrument Co.). Recovery of unconjugated bile acids was achieved by elution with 0.1 mol/L acetic acid in 72% ethanol (7 mL) followed by evaporation of the solvents. Total conjugated bile acids were recovered with 9 mL of 0.3 mol/L acetic acid in 72% ethanol, pH 9.6. Salts were removed by passage through a Bond-Elut C18 cartridge after addition of nordeoxycholic acid (10 μg), and conjugated bile acids were recovered by elution with 5 mL of methanol. Solvolysis was performed in a mixture of methanol (1 mL), distilled tetrahydrofuran (9 mL), and 1 mol/L trifluoracetic acid in dioxane (0.1 mL) and heated to 45° C for 2 hours. After solvolysis, unconjugated bile acids were isolated by chromatography on Lipidex-DEAP. Methyl ester derivatives were prepared by dissolving the sample in methanol (0.3 mL) and reacting with 2.7 mL of freshly distilled ethereal diazomethane. After evaporation of the reagents, the methyl ester derivatives were converted to trimethylsilyl ethers by the addition of […] of Tri-Sil reagent (Pierce Chemicals, Rockford, Ill.). A column of Lipidex 5000 (Packard Instrument Co.) was used to remove derivatizing reagents and to purify the sample.
GC-MS analysis was performed using a Finnigan 4635 mass spectrometer (Finnigan Inc., San Jose, Calif.) that housed an identical gas chromatography column operated under the same conditions. Electron ionization (70 eV) mass spectra were recorded over the mass range of 50-800 daltons by repetitive scanning of the eluting components. […]

[2] = system: Principal Bile Acids in Jejunum; experiment: Bile acid composition of jejunum after oral administration (GC-MS); type: in vivo, Sprague-Dawley rats; settings: for UDCA mass in jejunum / Chenodeoxycholic acid mass in jejunum / Cholic acid mass in jejunum / Cholic acid percent of jejunal bile acids / Deoxycholic acid mass in jejunum / Deoxycholic acid percent of jejunal bile acids / Lithocholic acid mass in jejunum / Lithocholic acid percent of jejunal bile acids / Total bile acid mass in jejunum / UDCA percent of jejunal bile acids / Δ^22-UDCA mass in jejunum / Δ^22-UDCA percent of jejunal bile acids / Δ^22-β-Muricholic acid mass in jejunum / Δ^22-ω-Muricholic acid mass in jejunum / α-Muricholic acid mass in jejunum / β-Muricholic acid mass in jejunum / ω-Muricholic acid mass in jejunum: oral gavage 250 mg/day, 4 days, mean ± SEM; for UDCA mass in jejunum: 24 hours after final dose
Description: as §1, §2
Samples of liver (100 mg) were ground to a fine paste, and bile acids were extracted by reflux and passage through a column of Lipidex 1000 as described above for intestinal contents and feces. Group separation of bile acids, according to their mode of conjugation was achieved by lipophilic anion-exchange chromatography. […]

[3] = oral gavage 250 mg/day, 4 days, mean ± SEM

Structure (SMILES)	Chenodeoxycholic acid mass in colon [1, 3]	Cholic acid mass in colon [1, 3]	Cholic acid percent of colonic bile acids [1, 3]	Deoxycholic acid mass in colon [1, 3]	Deoxycholic acid percent of colonic bile acids [1, 3]	Lithocholic acid mass in colon [1, 3]	Lithocholic acid percent of colonic bile acids [1, 3]	Total bile acid mass in colon [1, 3]	UDCA mass in colon [1, 3]	UDCA percent of colonic bile acids [1, 3]	Δ^22-UDCA percent of colonic bile acids [1, 3]	Δ^22-β-Muricholic acid mass in colon [1, 3]	Δ^22-ω-Muricholic acid mass in colon [1, 3]	α-Muricholic acid mass in colon [1, 3]	β-Muricholic acid mass in colon [1, 3]	ω-Muricholic acid mass in colon [1, 3]	Chenodeoxycholic acid mass in jejunum [2]	Cholic acid mass in jejunum [2]	Cholic acid percent of jejunal bile acids [2]	Deoxycholic acid mass in jejunum [2]	further results
C[C@H](CCC(=O)O)[C@H]1CC[C@H]2[C@@H]3[C@@H](OS(=O)(=O)O)C[C@@H]4C[C@H](O)CC[C@]4(C)[C@H]3CC[C@]12C [UDCA-7S, ursodeoxycholic acid 7-sulfate]	0.06 mg	0.09 mg	2.5%	0.36 mg	11.4%	0.04 mg	1.3%	2.98 mg	1.28 mg	44.0%	0%	0.03 mg	0.15 mg	0.03 mg	0.06 mg	0.88 mg	0.26 mg	15.78 mg	69.0%	0.76 mg	Change in colonic deoxycholic / lithocholic acid (in words) [1]: substantial reductions in the mass and proportion of both deoxycholic acid and lithocholic acid; UDCA mass in jejunum ([2]; listed as UDCA 7-SULFATE): 1.09 mg; UDCA mass in jejunum ([2]; listed as UDCA 7-sulfate): 1.09 ± 0.34 mg; Deoxycholic acid percent of jejunal bile acids [2]: 3.3%; Lithocholic acid mass in jejunum [2]: 0.01 mg; Lithocholic acid percent of jejunal bile acids [2]: 0.1%; Total bile acid mass in jejunum [2]: 22.91 mg; UDCA percent of jejunal bile acids [2]: 4.7%; Δ^22-UDCA mass in jejunum [2]: 0.70 mg; Δ^22-UDCA percent of jejunal bile acids [2]: 3.1%; Δ^22-β-Muricholic acid mass in jejunum [2]: 1.49 mg; Δ^22-ω-Muricholic acid mass in jejunum [2]: 0.26 mg; α-Muricholic acid mass in jejunum [2]: 0.04 mg; β-Muricholic acid mass in jejunum [2]: 2.21 mg; ω-Muricholic acid mass in jejunum [2]: 0.31 mg
C[C@H](CCC(=O)O)[C@H]1CC[C@H]2[C@@H]3[C@@H](OS(=O)(=O)O)C[C@@H]4C[C@H](OS(=O)(=O)O)CC[C@]4(C)[C@H]3CC[C@]12C [UDCA-DS, ursodeoxycholic acid 3,7-disulfate]	0.07 mg	0.23 mg	26.3%	0.31 mg	27.2%	0.02 mg	1.8%	1.22 mg	0.20 mg	14.7%	0%	0.01 mg	0.06 mg	0.03 mg	0.06 mg	0.24 mg	0.12 mg	6.78 mg	66.0%	0.5 mg	Change in colonic deoxycholic / lithocholic acid (in words) [1]: substantial reductions in the mass and proportion of both deoxycholic acid and lithocholic acid; UDCA mass in jejunum ([2]; listed as UDCA 3,7-SULFATE): 0.21 mg; UDCA mass in jejunum ([2]; listed as UDCA 3,7-disulfate): 0.21 ± 0.07 mg; Deoxycholic acid percent of jejunal bile acids [2]: 5.2%; Lithocholic acid percent of jejunal bile acids [2]: 0%; Total bile acid mass in jejunum [2]: 10.24 mg; UDCA percent of jejunal bile acids [2]: 2.0%; Δ^22-UDCA mass in jejunum [2]: 0.21 mg; Δ^22-UDCA percent of jejunal bile acids [2]: 2.1%; Δ^22-β-Muricholic acid mass in jejunum [2]: 0.34 mg; Δ^22-ω-Muricholic acid mass in jejunum [2]: 0.12 mg; β-Muricholic acid mass in jejunum [2]: 1.70 mg; ω-Muricholic acid mass in jejunum [2]: 0.24 mg
C[C@H](CCC(=O)O)[C@H]1CC[C@H]2[C@@H]3[C@@H](O)C[C@@H]4C[C@H](OS(=O)(=O)O)CC[C@]4(C)[C@H]3CC[C@]12C [UDCA-3S, ursodeoxycholic acid 3-sulfate]	0.06 mg	0.44 mg	13.8%	.58 mg	17.4%	0.61 mg	18.4%	4.07 mg	0.05 mg	1.5 ± 0.2%	0.2 ± 0.1%	0.01 mg	0.44 mg	0.02 mg	0.20 mg	1.67 mg	0.43 mg	8.49 mg	37.7%	1.96 mg	Δ^22-UDCA mass in colon [1, 3]: 0.01 mg; Δ^22 UDCA in jejunum (in words) ([2]; oral): detected in large proportions and amounts; UDCA mass in jejunum ([2]; listed as UDCA 3-SULFATE): 3.67 mg; UDCA mass in jejunum ([2]; listed as UDCA 3-sulfate): 3.67 ± 0.45 mg; Deoxycholic acid percent of jejunal bile acids [2]: 8.4%; Lithocholic acid mass in jejunum [2]: 0.07 mg; Lithocholic acid percent of jejunal bile acids [2]: 0.3%; Total bile acid mass in jejunum [2]: 22.57 mg; UDCA percent of jejunal bile acids [2]: 16.4%; Δ^22-UDCA mass in jejunum [2]: 2.04 mg; Δ^22-UDCA percent of jejunal bile acids [2]: 9.2%; Δ^22-β-Muricholic acid mass in jejunum [2]: 2.09 mg; Δ^22-ω-Muricholic acid mass in jejunum [2]: 0.24 mg; α-Muricholic acid mass in jejunum [2]: 0.18 mg; β-Muricholic acid mass in jejunum [2]: 3.02 mg; ω-Muricholic acid mass in jejunum [2]: 0.37 mg; Change in proportion of cholic acid in jejunum (in words) ([2]; oral, vs control): decrease (P=0.05) in the proportion of cholic acid but to a lesser extent than UDCA; Conjugation pattern of UDCA in jejunum ([2]; oral, anion-exchange chromatography): substantial proportions of amidated UDCA
